Measured values as given in article PMC8745223, “Novel 1,3,5-Triazinyl Aminobenzenesulfonamides Incorporating Aminoalcohol, Aminochalcone and Aminostilbene Structural Motifs as Potent Anti-VRE Agents, and Carbonic Anhydrases I, II, VII, IX, and XII Inhibitors” (International Journal of Molecular Sciences, 2021).
≈ marks a conversion by molar mass, not a printed value.

Experiments:
[1] = test system: T1, E. faecalis ATCC 29212 (EF); test: microbe, parasite or virus in culture; parameters: broth microdilution MIC in BHI, Alamar Blue read-out, 37 °C; settings: Enterococcus faecalis, ATCC29212, 24 h
T1 construct: ATCC 29212
Experimental: (§1) The inhibition activity against enterococci was evaluated by the microtitration broth method according to the Clinical and Laboratory Standards Institute with some modifications. The compounds were dissolved in DMSO and serially diluted in Brain Hearth Infusion (BHI) to reach concentrations 256–2 µg/mL. […] The experiment was repeated at least three times. All the investigated compounds were tested on their anti-staphylococcal activity against three clinical isolates of methicillin-resistant Staphylococcus aureus (MRSA) and S. aureus ATCC 29213 as the reference and quality control strain.

[2] = target: T2, hCA XII (Homo sapiens, UniProt O43570); test: stopped-flow CO2 hydration assay; format: biochemical
T2 construct: gene CA12; recombinant
How it was run: (§2)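 A stopped-flow method tracked CO2 hydration by recombinant human carbonic anhydrase for 10–100 s, using 0.2 mM phenol red (557 nm), 20 mM Hepes pH 7.5, 20 mM Na2SO4 and 1.7–17 mM CO2. Before the assay, enzyme and inhibitor (diluted to 0.005 nM in buffer) were preincubated for 15 min at room temperature. Initial rates came from at least six traces after subtraction of uncatalysed rates, and each value is the mean of three or more determinations. Ki was obtained by non-linear least-squares fitting with the Cheng–Prusoff equation.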

[3] = test system: T3, Enterococcus faecalis VRE 725 B; test: organism not typed; parameters: broth microdilution MIC in BHI, Alamar Blue read-out, 37 °C; settings: 24 h
T3 construct: VRE 725B (vanA clinical isolate)
Experimental: as §1, with “strain. […] All the compounds were tested against Enterococcus faecalis ATCC 29212 as the reference strain and three isolates from American crows of vanA-carrying vancomycin-resistant E. faecalis (VRE), and the activities, expressed as minimum inhibitory concentrations (MICs), are listed in Table 3.” for “strain.”

[4] = target: T4, hCA I (Homo sapiens, UniProt P00915); test: biochemical; parameters: stopped-flow CO2 hydration assay, phenol red indicator 557 nm, recombinant human CA, 15 min preincubation
T4 construct: gene CA1; recombinant
Experimental: AnSX.18MV-R Applied Photophysics stopped-flow instrument (Applied Photophysics, Leatherhead, UK) has been used for assaying the CA catalyzed CO2 hydration activity. Phenol red (at a concentration of 0.2 mM) has been used as an indicator, working at the absorbance maximum of 557 nm, with 20 mM Hepes (pH 7.5) as a buffer and 20 mM Na2SO4 (for maintaining constant the ionic strength), following the CA-catalyzed CO2 hydration reaction for a period of 10–100 s. The CO2 concentrations ranged from 1.7 to 17 mM for the determination of the kinetic parameters and inhibition constants. For each inhibitor, at least six traces of the initial 5–10% of the reaction were used for determining the initial velocity. The uncatalyzed rates were determined in the same manner and were subtracted from the total observed rates. Stock solutions of the inhibitor (0.1 mM) were prepared in distilled-deionized water, and dilutions up to 0.005 nM were done thereafter with the assay buffer. Inhibitor and enzyme solutions were preincubated together for 15 min at room temperature prior to assay in order to allow for the formation of the E–I complex. The inhibition constants were obtained by non-linear least-squares methods using PRISM 3 and the ChengPrusoff equation, as reported earlier, and represent the mean from at least three different determinations. All CA isoforms were recombinant ones and were prepared as reported earlier. Errors in the range of 5–10% of the reported value (Mean from three different assays, by stopped-flow technique). The presence of aminobenzenesulfonamide structural moiety in the structure of target compounds 1–44 can cause inhibition activity in these compounds against human carbonic anhydrases. The inhibition of physiologically relevant hCA I and hCA II can lead to various undesirable side effects. […] Compounds 1–44 were evaluated as potential inhibitors of hCA I, hCA II, hCA VII, hCA IX, and hCA XII. The inhibition activities against individual hCAs were determined by methodology based on stopped-flow assay. […]

[5] = target: T5, hCA II (Homo sapiens, UniProt P00918); test: stopped-flow CO2 hydration assay; format: biochemical
T5 construct: gene CA2; recombinant
How it was run: as §2

[6] = target: T6, hCA IX (Homo sapiens, UniProt Q16790); test: stopped-flow CO2 hydration assay; format: biochemical
T6 construct: gene CA9; recombinant
How it was run: as §2

[7] = test system: T7, Enterococcus faecalis VRE 368; test: organism not typed; parameters: broth microdilution MIC in BHI, Alamar Blue read-out, 37 °C; settings: 24 h
T7 construct: VRE 368 (vanA clinical isolate)
Experimental: as §1

[8] = test system: T8, Enterococcus faecalis VRE 342 B; test: organism not typed; parameters: broth microdilution MIC in BHI, Alamar Blue read-out, 37 °C; settings: 24 h
T8 construct: VRE 342 B (vanA clinical isolate)
Experimental: as §1

[9] = target: T4, hCA I; test: stopped-flow CO2 hydration assay; format: biochemical
How it was run: as §2

[10] = target: T9, hCA VII (Homo sapiens, UniProt P43166); test: stopped-flow CO2 hydration assay; format: biochemical
T9 construct: gene CA7; recombinant
How it was run: as §2

[11] = stopped-flow CO2 hydration assay; format: biochemical, Homo sapiens; settings: read-out: KI (nM) ^a / hCA I
How it was run: as §2

T4 sequence (P00915 2-261): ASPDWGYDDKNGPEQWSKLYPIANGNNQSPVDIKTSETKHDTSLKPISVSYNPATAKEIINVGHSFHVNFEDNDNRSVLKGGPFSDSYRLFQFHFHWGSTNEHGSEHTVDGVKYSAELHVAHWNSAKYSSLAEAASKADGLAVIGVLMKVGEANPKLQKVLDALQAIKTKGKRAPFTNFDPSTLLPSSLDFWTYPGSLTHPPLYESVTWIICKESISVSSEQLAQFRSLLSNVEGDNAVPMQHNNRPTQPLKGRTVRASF
T2 sequence (O43570 25-354): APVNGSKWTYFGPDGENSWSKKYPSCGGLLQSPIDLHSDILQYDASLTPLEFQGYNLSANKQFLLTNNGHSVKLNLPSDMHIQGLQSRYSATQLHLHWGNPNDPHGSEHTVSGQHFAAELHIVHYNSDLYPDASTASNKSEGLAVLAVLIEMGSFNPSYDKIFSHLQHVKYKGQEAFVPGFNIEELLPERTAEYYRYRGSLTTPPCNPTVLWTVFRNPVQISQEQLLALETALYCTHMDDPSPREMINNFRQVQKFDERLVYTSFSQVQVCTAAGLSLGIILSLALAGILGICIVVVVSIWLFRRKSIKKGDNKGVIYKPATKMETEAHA
T9 sequence (P43166 whole entry): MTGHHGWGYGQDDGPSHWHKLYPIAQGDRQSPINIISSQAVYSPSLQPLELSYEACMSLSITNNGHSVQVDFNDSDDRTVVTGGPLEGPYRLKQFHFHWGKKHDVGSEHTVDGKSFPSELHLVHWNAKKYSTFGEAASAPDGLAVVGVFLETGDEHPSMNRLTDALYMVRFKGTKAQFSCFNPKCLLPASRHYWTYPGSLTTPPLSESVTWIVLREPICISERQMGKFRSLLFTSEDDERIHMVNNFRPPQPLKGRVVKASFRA

| Compound | MIC [1] | Ki [2] | MIC [3] | Ki [4] | Ki [5] | Ki [6] | MIC [7] | MIC [8] | Ki [9] | Ki [10] | Ki [11] |
| --- | --- | --- | --- | --- | --- | --- | --- | --- | --- | --- | --- |
| NS(=O)(=O)c1ccc(CCNc2nc(NCCc3ccc(S(N)(=O)=O)cc3)nc(Nc3ccc(/C=C/c4cccc(O)c4)cc3)n2)cc1 [compound 41, (E)-4,4’-{[(6-{[4-(3-Hydroxystyryl)phenyl]amino}-1,3,5-triazin-2,4-diyl)bis(azandiyl)]bis(ethan-2,1-diyl)} benzenesulfonamide] | 372 µM (≈ 255 µg/mL) | 62.2 nM | > 372 µM | 608 nM | 41.4 nM | 31.1 nM | > 372 µM | > 372 µM | – | – | – |
| NS(=O)(=O)c1ccc(CCNc2nc(Nc3ccc(O)cc3)nc(Nc3ccc(C(=O)/C=C/c4cccc(O)c4)cc3)n2)cc1 [compound 26, (E)-4-[2-({4-({4-[3-(3-Hydroxyphenyl)acryloyl]phenyl}amino)-6-[(4-hydroxyphenyl)amino]-1,3,5-triazin-2-yl}amino)ethyl]benzenesulfonamide] | 51.3 µM (≈ 32 µg/mL) | – | 51.3 µM (≈ 32 µg/mL) | – | 1340 nM | > 10000 nM | 25.6 µM (≈ 16 µg/mL) | 51.3 µM (≈ 32 µg/mL) | 6630 nM | 42.1 nM | – |
| NS(=O)(=O)c1ccc(CCNc2nc(Nc3ccc(O)cc3)nc(Nc3ccc(C(=O)/C=C/c4ccc(O)cc4)cc3)n2)cc1 [compound 29, (E)-4-[2-({4-({4-[3-(4-Hydroxyphenyl)acryloyl]phenyl}amino)-6-[(4-hydroxyphenyl)amino]-1,3,5-triazin-2-yl}amino)ethyl]benzenesulfonamide] | 25.6 µM (≈ 16 µg/mL) | – | 51.3 µM (≈ 32 µg/mL) | – | 730 nM | > 10000 nM | 102 µM (≈ 63.6 µg/mL) | 25.6 µM (≈ 16 µg/mL) | 5810 nM | 88.6 nM | – |
| NS(=O)(=O)c1ccc(CCNc2nc(NCC(O)CO)nc(Nc3ccc(C(=O)/C=C/c4ccccc4O)cc3)n2)cc1 (centres unmarked) [compound 23, 23] | 52.8 µM (≈ 32 µg/mL) | – | 105 µM (≈ 63.6 µg/mL) | – | 83 nM | – | 52.8 µM (≈ 32 µg/mL) | 52.8 µM (≈ 32 µg/mL) | > 10000 nM | 88.7 nM | > 10000 nM |
| NS(=O)(=O)c1ccc(CCNc2nc(Nc3ccc(O)cc3)nc(Nc3ccc(/C=C/c4ccc(O)cc4)cc3)n2)cc1 [compound 43, 43] | 429 µM (≈ 256 µg/mL) | 702 nM | > 429 µM | 4060 nM | 4840 nM | 25.7 nM | > 429 µM | > 429 µM | – | – | – |
| NS(=O)(=O)c1ccc(CCNc2nc(NCCCO)nc(Nc3ccc(C(=O)/C=C/c4ccc(O)cc4)cc3)n2)cc1 [compound 27, (E)-4-[2-({4-({4-[3-(4-Hydroxyphenyl)akryloyl]phenyl}amino)-6-[(3-hydroxypropyl)amino]-1,3,5-triazin-2-yl}amino)ethyl]benzenesulfonamide] | > 434 µM | – | 434 µM (≈ 256 µg/mL) | – | 28.8 nM | > 10000 nM | > 434 µM | > 434 µM | 8960 nM | 459 nM | – |
| NS(=O)(=O)c1ccc(CCNc2nc(NCCCO)nc(Nc3ccc(C(=O)/C=C/c4ccccc4O)cc3)n2)cc1 [compound 22, 22] | 108 µM (≈ 63.7 µg/mL) | – | 108 µM (≈ 63.7 µg/mL) | – | 939 nM | > 10000 nM | 108 µM (≈ 63.7 µg/mL) | 108 µM (≈ 63.7 µg/mL) | 7700 nM | 283 nM | – |
| NS(=O)(=O)c1ccc(CNc2nc(NCCCO)nc(Nc3ccc(C(=O)/C=C/c4ccccc4)cc3)n2)cc1 [compound 13, 13] | 228 µM (≈ 128 µg/mL) | – | 228 µM (≈ 128 µg/mL) | – | 277 nM | 4630 nM | 114 µM (≈ 63.8 µg/mL) | 228 µM (≈ 128 µg/mL) | 1960 nM | 95.7 nM | – |
| NS(=O)(=O)c1ccc(CNc2nc(NCCCO)nc(Nc3ccc(C(=O)/C=C/c4ccc(O)cc4)cc3)n2)cc1 [compound 16, (E)-4-[({4-({4-[3-(4-Hydroxyphenyl)acryloyl]phenyl}amino)-6-[(3-hydroxypropyl)amino]-1,3,5-triazin-2-yl}amino)methyl]benzenesulfonamide] | > 444 µM | – | > 444 µM | – | 36 nM | 161 nM | > 444 µM | > 444 µM | 800 nM | 201 nM | – |
| NS(=O)(=O)c1ccc(CCNc2nc(NCc3ccc(S(N)(=O)=O)cc3)nc(Nc3ccc(/C=C/c4ccc(O)cc4)cc3)n2)cc1 [compound 44, (E)-4-{2-[(4-{[4-(4-Hydroxystyryl)phenyl]amino}-6-[(4-sulfamoylbenzyl)amino]-1,3,5-triazin-2-yl)amino]ethyl}benzenesulfonamide] | 380 µM (≈ 256 µg/mL) | 10 nM | 380 µM (≈ 256 µg/mL) | 859 nM | 252 nM | 249 nM | > 380 µM | 190 µM (≈ 128 µg/mL) | – | – | – |
| NS(=O)(=O)c1ccc(CNc2nc(NCCCO)nc(Nc3ccc(C(=O)/C=C/c4ccccc4O)cc3)n2)cc1 [compound 14, 14] | 111 µM (≈ 63.9 µg/mL) | – | > 444 µM | – | 35.4 nM | 623 nM | 111 µM (≈ 63.9 µg/mL) | 111 µM (≈ 63.9 µg/mL) | 5400 nM | 180 nM | – |
| NS(=O)(=O)c1ccc(CCNc2nc(NCCCO)nc(Nc3ccc(C(=O)/C=C/c4cccc(O)c4)cc3)n2)cc1 [compound 25, (E)-4-[2-({4-({4-[3-(3-Hydroxyphenyl)acryloyl]phenyl}amino)-6-[(3-hydroxypropyl)amino]-1,3,5-triazin-2-yl}amino)ethyl]benzenesulfonamide] | 27.1 µM (≈ 16 µg/mL) | – | 108 µM (≈ 63.7 µg/mL) | – | 4130 nM | > 10000 nM | 27.1 µM (≈ 16 µg/mL) | 27.1 µM (≈ 16 µg/mL) | 7490 nM | 186 nM | – |
| NS(=O)(=O)c1ccc(CCNc2nc(Nc3ccc(O)cc3)nc(Nc3ccc(C(=O)/C=C/c4ccccc4O)cc3)n2)cc1 [compound 24, 24] | 51.3 µM (≈ 32 µg/mL) | – | 102 µM (≈ 63.6 µg/mL) | – | 63.8 nM | 227 nM | 51.3 µM (≈ 32 µg/mL) | 51.3 µM (≈ 32 µg/mL) | 5010 nM | 281 nM | – |
